The results in this text go back to ChEMBL document CHEMBL1157453, “Chrobisiamone A, a new bischromone from Cassia siamea and a biomimetic transformation of 5-acetonyl-7-hydroxy-2-methylchromone into cassiarin A” (Bioorg Med Chem Lett, 2008).

Values after ≈ are worked out from the molar mass of the structure shown.

The subject of the assay is Plasmodium falciparum. Briefly: Antiplasmodial activity against Plasmodium falciparum 3D7. In kind it is functional, organism-based.
By IC50 is commonly meant the concentration needed to halve the response being measured. Read a low IC50 as greater potency. With `CC(=O)Cc1cc(O)cc2c1C(=O)CC(C)(Cc1cc(=O)c3c(CC(C)=O)cc(O)cc3o1)O2` (stereo not drawn) [CHROBISIAMONE A], the IC50 turned out to be 2.6 µg/mL (≈ 5.6 µM). To `Cc1cc2cc(=O)cc3oc(C)cc(o1)c23` [ANHYDROBARAKOL] belongs 7.8 µg/mL (≈ 36.4 µM); to `CC(=O)Cc1cc(O)cc2oc(C)cc(=O)c12`, 4.5 µg/mL (≈ 19.4 µM).
